We go through 2 compounds from US20200383970A1, “Morphinan Derivatives with High Oral Bioavailability” (Alkermes Pharma Ireland Limited, priority 2009, published 2020).

SMILES strings stand for the structures. Where two headings read alike, the source gives them in different places.

Data set [1] can be described thus: Pharmacokinetic analysis following PO administration in monkey.
Data set [2] is described as follows: Pharmacokinetic analysis following PO administration in dog. Format: in vivo. Here is the method:
Example 2: Pharmacokinetic analysis of Compound 1: The PK of Compound 1 and the reference compound Naltrexone was determined following IV (1 mg/kg) and PO (10 mg/kg or 1 mg/kg) administration. Concentrations of Compound 1 and naltrexone were determined by LC-MS/MS. The PK parameters were determined by noncompartmental analysis using WiNonlin (v5.1). FIGS. 2-4 show the PK profiles of naltrexone and Compound 1.

Data set [3] can be described thus: Pharmacokinetic analysis following PO administration in rat.
For data set [4] the following is noted: dog, oral dose 1 (mg); Reuning et at. J Pharm Sci. 1979; cited from earlier work.

Consider `NC(=O)c1ccc2c(c1O)[C@]13CCN(CC4CC4)[C@H](C2)[C@]1(O)CCC(=O)C3` [Compound 1], for which the AUC(0-inf) is 4470 ng·h/mL in data set [1] (monkey, in vivo, po, 10 mg/kg); 491 ng·h/mL in data set [2] (dog, in vivo, po, 1 mg/kg); 1320 ng·h/mL in data set [3] (rat, in vivo, po, 10 mg/kg). Also, the Cmax in data set [1] (monkey, in vivo, po, 10 mg/kg) worked out at 627 ng/mL; in data set [2] (in vivo, 1 mg/kg, dog, oral dose 1 (mg)), 104 ng/mL; in data set [3] (rat, in vivo, po, 10 mg/kg) it was 929 ng/mL. The bioavailability in data set [1] (monkey, in vivo, po, 10 mg/kg) is 68%; in data set [2] (in vivo, 1 mg/kg, dog, oral dose 1 (mg), read-out: Bioavailability (F %)), 66%; in data set [3] (rat, in vivo, po, 10 mg/kg), 15%. The half-life in data set [1] (monkey, in vivo, po, 10 mg/kg) was 5.4 h; in data set [2] (dog, in vivo, po, 1 mg/kg), 3.2 h; in data set [3] (rat, in vivo, po, 10 mg/kg) it was 1.2 h. Moreover, the “improvement in oral bioavailability in comparison with naltrexone” value in data set [1] (monkeys, oral administration) is “over 4 fold”; in data set [2] (dogs, oral administration), “over 50 fold”; in data set [3] (rats, oral administration), 4 fold.
On to `O=C1CC[C@@]2(O)[C@H]3Cc4ccc(O)c5c4[C@@]2(CCN3CC2CC2)[C@H]1O5` [Naltrexone, reference compound], for which, in data set [4], the “AUC∞” value is 4.2 ng·h/mL, the “Bioavailability (F %)” value is 1.1% and the Cmax is 2.7 ng/mL. Besides, in data set [1] (monkey, in vivo, po, 10 mg/kg), the AUC(0-inf) stood at 54 ng·h/mL, the highest concentration (Cmax) was 13 ng/mL and the bioavailability was 13%. In data set [3] (rat, in vivo, po, 10 mg/kg), the AUC(0-inf) amounted to 150 ng·h/mL, the Cmax was 61.6 ng/mL and the bioavailability is 3%.
